Consider one compound from patent US20030162777A1, “Novel N-acylated heterocycles” (Recordati S.A., priority 2001, published 2003).

One experiment addresses T1, 5-HT1A receptors (Rattus norvegicus, UniProt P19327).
T1 construct: from tissue; host or cells: whole animal: male Sprague-Dawley rats (post-synaptic 5-HT1A receptors)
T1 sequence (P19327 1-422): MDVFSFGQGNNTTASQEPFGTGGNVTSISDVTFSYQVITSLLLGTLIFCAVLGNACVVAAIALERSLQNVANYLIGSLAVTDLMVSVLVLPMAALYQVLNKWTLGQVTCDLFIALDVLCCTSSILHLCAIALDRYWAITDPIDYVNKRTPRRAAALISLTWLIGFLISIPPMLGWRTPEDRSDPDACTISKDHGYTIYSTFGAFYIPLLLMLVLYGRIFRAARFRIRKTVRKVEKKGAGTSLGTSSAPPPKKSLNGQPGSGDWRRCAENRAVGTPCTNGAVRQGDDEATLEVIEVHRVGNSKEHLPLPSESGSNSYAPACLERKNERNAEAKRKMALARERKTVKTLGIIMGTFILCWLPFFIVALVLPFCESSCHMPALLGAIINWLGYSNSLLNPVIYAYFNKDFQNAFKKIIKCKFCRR
Put plainly: Inhibition of stereotypy (rhythmic forepaw treading) induced by 8-OH-DPAT in rats (post-synaptic antagonism). It counts as in vivo. Conditions: 1 mg/kg p.o.; for inhibition at 1 mg/kg: rat. As to the method:
The inhibitory effect of 5-HT1A-receptor antagonists on stereotyped forepaw treading induced in rats by subcutaneous injection of 8-OH-DPAT was evaluated by the method of Tricklebank (Tricklebanket al., Eur. J. Pharmacol., 117: 15, 1985) with minor modifications as described below.
Male Sprague-Dawley rats [Crl: CD° (SD) BR] weighing 150-175 g from Charles River Italia were used. The animals were housed with free access to food and water and maintained on a forced 12-hour-light/12-hour-dark cycle at 22-24° C. of temperature. On the day of the experiment, the rats were placed singly in clear plastic containers, 10-15 minutes before administration of the vehicle or compounds to be tested. For evaluation of antagonistic activity after oral administration, the compounds were administered 0.5, 1 and 4 hours before induction of stereotypy by 8-OH-DPAT (1 mg/kg subcutaneously). Observation sessions lasted 30 seconds and began 3 minutes after 8-OH-DPAT treatment and were repeated every 3 minutes over a period of 15 minutes.
The appearance of the symptom induced by postsynaptic stimulation of 5-HT1A receptors was noted, and the intensity was scored using an intensity scale in which: 0=absent, 1=equivocal, 2=present and 3=intense. Behavioural scores for treated rats were accumulated throughout the observation time (5 observation periods) and expressed as mean values of 4 rats/dose. Change in mean values of treated animals in comparison with control (vehicle) group, expressed as per-cent inhibition, was used in order to quantify the antagonistic activity.

A further experiment deals with conscious rats. Put plainly: Effect on cystometric parameters in conscious rats after oral administration. In kind it is in vivo, rat. The following applies: 3 mg/kg p.o., 1-5 h after treatment, versus vehicle. As to the method:
Male Sprague-Dawley rats [Crl: CD° (SD) BR] of 300-400 g supplied by Charles River Italia were used. The animals were housed with free access to food and water and maintained on a forced 12-hour-light/12-hour-dark cycle at 22-24° C. of temperature, except during the experiment. To quantify urodynamic parameters in conscious rats, cystometrographic studies were performed according to the procedure previously reported (Guarneri et al., Pharmacol. Res. 24: 175, 1991).
Briefly, the rats were anaesthetised by intraperitoneal administration of 3 ml/kg of Equithensin solution (pentobarbital 30 mg/kg and chloral hydrate 125 mg/kg) and placed in a supine position. An approximately-10-mm-long midline incision was made in the shaved and cleaned abdominal wall. The urinary bladder was gently freed from adhering tissues, emptied and then cannulated via an incision in the bladder body, using a polyethylene cannula (0.58-mm internal diameter, 0.96-mm external diameter) which was permanently sutured with silk thread. The cannula was exteriorised through a subcutaneous tunnel in the retroscapular area, where it was connected to a plastic adapter in order to avoid the risk of removal by the animal. For drug testing, the rats were utilised one day after implantation.
On the day of the experiment, the rats were placed in modified Bollman cages, i.e. restraining cages that were large enough to permit the rats to adopt a normal crouched posture, but narrow enough to prevent turning around. […] The intraluminal-pressure signal during infusion of saline into the bladder was continuously recorded on a polygraph (Rectigraph-8K San-ei with BM614/2 amplifier from Biomedica Mangoni) and, from the cystometrogram, two urodynamic parameters were evaluated: bladder volume capacity (BVC) and micturition pressure (MP). […] Basal BVC and MP values were evaluated as mean of the values observed in the cystometrograms recorded in an initial period of 30-60 minutes. […] The bladder infusion restarted and changes in BVC and MP were evaluated from the mean values obtained in the cystometrograms observed during 1, 2, 3, 4 and 5 hours after treatment. […]
All data were expressed as mean±standard error. Time-course data were analysed by S.A.S./STAT software, version 6.12. The difference between vehicle and active-treatment effect was evaluated by: General Linear Model Procedure—Repeated Measures Analysis of Variance: Univariate test of Hypotheses for within Subject Effects—Analysis of Variance of Contrast Variables. […]

Molecules are shown by their SMILES.

A word on the inhibition: it is the percentage by which the read-out fell short of the control. A higher inhibition goes with strong suppression.

As to `O=C(C1CCCCC1)N1c2ccccc2CCC1CN1CCN(c2cccc3[nH]ccc23)CC1` (racemic) [Example 1, (±)1-(1-cyclohexanecarbonyl-1,2,3,4-tetrahydroquinoline-2-ylmethyl)-4-(4-indolyl)piperazine], the “post-synaptic 5-HT1A-receptor antagonist activity (in words)” value at 5-HT1A receptors (rats) is “significant and long-lasting post-synaptic 5-HT1A-receptor antagonist activity”. The figures for the inhibition at 1 mg/kg against 5-HT1A receptors (0.5 h before 8-OH-DPAT (1 mg/kg s.c.)), at 5-HT1A receptors (1 h before 8-OH-DPAT (1 mg/kg s.c.)) and at 5-HT1A receptors (4 h before 8-OH-DPAT (1 mg/kg s.c.)) were 91%, 91% and 96%, respectively. Further, the “effect on bladder volume capacity (BVC)” value in the experiment on conscious rats is “effective in increasing the bladder volume capacity”. Besides, the “effect on micturition pressure (MP)” value in the experiment on conscious rats is listed as “without significant effects”.
